Measured values reported in patent US20250145592A1 (NICO Therapeutics, Inc., priority 2022, published 2025).
Like-named read-outs stand apart in the source and are kept apart here.

System: IL-1β secretion in THP-1 cells (NLRP3)
Assay: IL-1β secretion assay in PMA-differentiated THP-1 cells stimulated with LPS and nigericin (ELISA readout)
Type: cell-based
Conditions: IL-1β ELISA
Experimental: Compounds as provided herein were tested in the following assay. Cell culture medium employed contained RPMI 1640 medium (89%), FBS (10%), Pen/Strep (1%), and 2-mercaptoethanol (0.05 mM). Freezing medium was made up of 90% FBS and 10% DMSO. THP-1 cells were removed from the liquid nitrogen and placed into a 37° C. water bath to thaw, until signs of ice dissipated. The cells were then added to 9 mL of warm cell culture medium and centrifuged for 5 minutes at 1000 rpm. The supernatant was discarded, and the cells were resuspended in new cell culture medium. THP-1 cells were then split and cultured in the cell culture medium, being passaged every 2-3 days with the cell density will be maintained between 5×10^5 and 1.5×10^6 viable cells/mL.
To freeze, cells were resuspended with fresh freezing medium, adjusting the cell density to 5×10^6 cells/mL. The cell suspension was partitioned into 1 mL aliquots per vial, and the vials were transferred to a −80° C. freezer. After one day at −80° C., the cell vials were transferred to liquid nitrogen freezer for storage.
PMA was dissolved in DMSO to make a stock solution at 5 mg/ml and stored in 10 μl aliquots at −20° C. for single use. PMA is added to normal growth medium. LPS was diluted with 1 mL of water solution to provide a 1 mg/mL stock solution and stored in 15 μl aliquots at −20° C. for single use. Nigericin is diluted in ice cold 100% ethanol to 5 mg/ml (6.7 mM) and stored in 75 μL aliquots at −20° C. for single use. Serum-free media contains RPMI 1640 medium (99%), Pen/Strep (1%), and 2-mercaptoethanol (0.05 mM). The two control conditions used to qualify and normalize test compound dose-response curves were as follows: High Control=25 ng/mL LPS, […], 0.5% DMSO, Low Control=25 ng/mL, LPS, 0.5% DMSO.
THP-1 cells were diluted to provide a suspension at a concentration of 1.0×10^6 cells/mL with the total volume of suspension required to enable the desired number of assay plates. The growth media was supplemented with PMA (5 ng/mL final concentration) and the cells were incubated at 37° C. under a humidified atmosphere of 5% CO2 for 40 h.
All media was carefully aspirated from each culture flask. The cells were washed carefully with 1×DPBS. The cells were then briefly digested with trypsin LE for 5 minutes at 23° C. and immediately resuspended in cell growth media. After resuspension, the cells were centrifuged at 1000 rpm for 3 minutes and the supernatant was discarded. The cells were resuspended in DPBS and once again centrifuged at 1000 rpm for 5 minutes. The supernatant was discarded and the cell pellet was resuspended in serum-free media supplemented with LPS (25 ng/mL final concentration) to enable the distribution of 30K THP-1 cells within 45 μL of media into each well of 384-well PDL-coated plates. The 384-well plates were then incubated at 37° C. under a humidified atmosphere of 5% CO2 for 2 h. Following this period, test compounds were dispensed by Tecan across the desired concentration range with all wells normalized to a final 0.5% DMSO concentration. The plates were then then incubated at 37° C. under a humidified atmosphere of 5% CO2 for 1 h. Following this period, 5 μL of the 5 mg/mL nigericin stock solution was added to each of the appropriate wells and plates were centrifuged at 1000 rpm for 30 seconds. The plates were the immediately reintroduced to the incubator at 37° C. under a humidified atmosphere of 5% CO2 for 2 h. After this time, 35 μL/well of supernatant was collected and transferred into v-bottom plate and centrifuged at 1000 rpm for 1 minute. These supernatant aliquots were analyzed using an IL-Iβ detection kit as described below. If needed, the test samples could be snap frozen and stored at −80° C. until analyzed.
To prepare each ELISA plate, capture antibody (mAb Mt175) was diluted with PBS to a final concentration of […] and then 20 µL of this solution was added to each well of the ELISA plate.
Each plate was allowed to incubate overnight at 4° C. […]

[1] = Homo sapiens, THP-1, Table 3, LPS 25 ng/mL + nigericin, read-out: Activity (IC50 class)
[2] = Homo sapiens, THP-1, Table 4, LPS 25 ng/mL + nigericin, read-out: Activity (IC50)
[3] = Table 4, LPS 25 ng/mL + nigericin, read-out: Activity (IC50)
[4] = Table 3, LPS 25 ng/mL + nigericin, read-out: Activity (IC50 class)

IC50 [1] [nM] | IC50 [2] [nM] | IC50 [3] [nM] | IC50 [4] [nM] | Structure (SMILES)
< 1000 | 790 |  |  | CC[C@H]1C[C@@H]1Oc1nn(CC(=O)Nc2ncc(F)cn2)c(=O)c2ccc(Br)cc12 (relative stereo) [Example 51, 2-[6-bromo-4-[trans-2-ethylcyclopropyl]oxy-1-oxophthalazin-2-yl]-N-(5-fluoropyrimidin-2-yl)acetamide]
< 1000 |  | 202 |  | C[C@@H]1CC1Oc1nn(CC(=O)Nc2ncc(F)cn2)c(=O)c2ccc(Br)cc12 (single isomer, unassigned) [Example 2, 2-[6-bromo-4-[2-trans-methylcyclopropyl]oxy-1-oxophthalazin-2-yl]-N-(5-fluoropyrimidin-2-yl)acetamide]
 |  | 35 | < 1000 | C[C@@H]1CC1Oc1nn(CC(=O)Nc2ncc(F)cn2)c(=O)c2ccc(Br)cc12 (single isomer, unassigned) [Example 3, 2-[6-bromo-4-[2-trans-methylcyclopropyl]oxy-1-oxophthalazin-2-yl]-N-(5-fluoropyrimidin-2-yl)acetamide]
< 1000 |  | 21 |  | O=C(Cn1nc(OC2CC3(C2)CC3(F)F)c2cc(Br)ccc2c1=O)Nc1ncc(F)cn1 (single isomer, unassigned) [Example 5, 2-[6-bromo-4-(2,2-difluorospiro[2.3]hexan-5-yl)oxy-1-oxophthalazin-2-yl]-N-(5-fluoropyrimidin-2-yl)acetamide]
 |  | 308 | < 1000 | O=C(Cn1nc(OC2CC3(C2)CC3(F)F)c2cc(Br)ccc2c1=O)Nc1ncc(F)cn1 (single isomer, unassigned) [Example 6, 2-[6-bromo-4-(2,2-difluorospiro[2.3]hexan-5-yl)oxy-1-oxophthalazin-2-yl]-N-(5-fluoropyrimidin-2-yl)acetamide]
< 1000 |  | 84 |  | C[C@@H]1CC1Oc1nn(CC(=O)N[C@H]2C[C@@](C)(O)C2)c(=O)c2ccc(Br)cc12 (single isomer, unassigned) [Example 7, 2-[6-bromo-4-[trans-2-methylcyclopropyl]oxy-1-oxophthalazin-2-yl]-N-(cis-3-hydroxy-3-methylcyclobutyl)acetamide]
 |  | 728 | < 1000 | C[C@@H]1CC1Oc1nn(CC(=O)N[C@H]2C[C@@](C)(O)C2)c(=O)c2ccc(Br)cc12 (single isomer, unassigned) [Example 8, 2-[6-bromo-4-[trans-2-methylcyclopropyl]oxy-1-oxophthalazin-2-yl]-N-(cis-3-hydroxy-3-methylcyclobutyl)acetamide]
< 1000 |  | 554 |  | Cc1cnc(NC(=O)Cn2nc(OC3C[C@H]3C)c3cc(Br)ccc3c2=O)nc1 (single isomer, unassigned) [Example 9, 2-[6-bromo-4-[trans-2-methylcyclopropyl]oxy-1-oxophthalazin-2-yl]-N-(5-methylpyrimidin-2-yl)acetamide]
 |  | 141 | < 1000 | Cc1cnc(NC(=O)Cn2nc(OC3C[C@H]3C)c3cc(Br)ccc3c2=O)nc1 (single isomer, unassigned) [Example 10, 2-[6-bromo-4-[trans-2-methylcyclopropyl]oxy-1-oxophthalazin-2-yl]-N-(5-methylpyrimidin-2-yl)acetamide]
< 1000 |  | 34 |  | O=C(Cn1nc(OC2CC3(C2)CC3(F)F)c2cc(C3(F)CC3)ccc2c1=O)Nc1ncc(F)cn1 (single isomer, unassigned) [Example 13, 2-[4-(2,2-difluorospiro[2.3]hexan-5-yl)oxy-6-(1-fluorocyclopropyl)-1-oxophthalazin-2-yl]-N-(5-fluoropyrimidin-2-yl)acetamide]
 |  | 314 | < 1000 | O=C(Cn1nc(OC2CC3(C2)CC3(F)F)c2cc(C3(F)CC3)ccc2c1=O)Nc1ncc(F)cn1 (single isomer, unassigned) [Example 14, 2-[4-(2,2-difluorospiro[2.3]hexan-5-yl)oxy-6-(1-fluorocyclopropyl)-1-oxophthalazin-2-yl]-N-(5-fluoropyrimidin-2-yl)acetamide]
< 1000 |  | 70 |  | O=C(Cn1nc(OC2CC2(F)F)c2cc(Br)ccc2c1=O)Nc1ncc(F)cn1 (single isomer, unassigned) [Example 17, 2-[6-bromo-4-[2,2-difluorocyclopropyl]oxy-1-oxophthalazin-2-yl]-N-(5-fluoropyrimidin-2-yl)acetamide]
 |  | 1510 | 1000 to 10000 | O=C(Cn1nc(OC2CC2(F)F)c2cc(Br)ccc2c1=O)Nc1ncc(F)cn1 (single isomer, unassigned) [Example 18, 2-[6-bromo-4-[2,2-difluorocyclopropyl]oxy-1-oxophthalazin-2-yl]-N-(5-fluoropyrimidin-2-yl)acetamide]
< 1000 |  | 179 |  | C[C@]1(O)C[C@@H](NC(=O)Cn2nc(OC3CC4(C3)CC4(F)F)c3cc(Br)ccc3c2=O)C1 (single isomer, unassigned) [Example 19, 2-[6-bromo-4-(2,2-difluorospiro[2.3]hexan-5-yl)oxy-1-oxophthalazin-2-yl]-N-(cis-3-hydroxy-3-methylcyclobutyl)acetamide]
 |  | 3400 | 1000 to 10000 | C[C@]1(O)C[C@@H](NC(=O)Cn2nc(OC3CC4(C3)CC4(F)F)c3cc(Br)ccc3c2=O)C1 (single isomer, unassigned) [Example 20, 2-[6-bromo-4-(2,2-difluorospiro[2.3]hexan-5-yl)oxy-1-oxophthalazin-2-yl]-N-(cis-3-hydroxy-3-methylcyclobutyl)acetamide]
< 1000 |  | 31 |  | Cc1cnc(NC(=O)Cn2nc(OC3CC4(C3)CC4(F)F)c3cc(Br)ccc3c2=O)nc1 (single isomer, unassigned) [Example 21, 2-[6-bromo-4-(2,2-difluorospiro[2.3]hexan-5-yl)oxy-1-oxophthalazin-2-yl]-N-(5-methylpyrimidin-2-yl)acetamide]
 |  | 815 | < 1000 | Cc1cnc(NC(=O)Cn2nc(OC3CC4(C3)CC4(F)F)c3cc(Br)ccc3c2=O)nc1 (single isomer, unassigned) [Example 22, 2-[6-bromo-4-(2,2-difluorospiro[2.3]hexan-5-yl)oxy-1-oxophthalazin-2-yl]-N-(5-methylpyrimidin-2-yl)acetamide]
< 1000 |  | 33 |  | O=C(Cn1nc(OC2CC3(C2)CC3(F)F)c2cc(Br)ccc2c1=O)Nc1nc2ccccn2n1 (single isomer, unassigned) [Example 25, 2-[6-bromo-4-(2,2-difluorospiro[2.3]hexan-5-yl)oxy-1-oxophthalazin-2-yl]-N-([1,2,4]triazolo[1,5-a]pyridin-2-yl)acetamide]
 |  | 596 | < 1000 | O=C(Cn1nc(OC2CC3(C2)CC3(F)F)c2cc(Br)ccc2c1=O)Nc1nc2ccccn2n1 (single isomer, unassigned) [Example 26, 2-[6-bromo-4-(2,2-difluorospiro[2.3]hexan-5-yl)oxy-1-oxophthalazin-2-yl]-N-([1,2,4]triazolo[1,5-a]pyridin-2-yl)acetamide]
< 1000 | 368 |  |  | CC[C@@H]1CC1Oc1nn(CC(=O)Nc2ncc(F)cn2)c(=O)c2ccc(Br)cc12 (single isomer, unassigned) [Example 35, 2-[6-bromo-4-[cis-2-ethylcyclopropyl]oxy-1-oxophthalazin-2-yl]-N-(5-fluoropyrimidin-2-yl)acetamide]
